Measurements: the supplement of paper PMC11061612

Columns and labels:
ES8 (Ewing's Sarcoma) [1] = assay: Bliss excess, mean over the matrix (fraction); higher = more synergy
How it was run: (§1)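 Cell lines grown in DMEM/F12 or RPMI with 10% FBS were plated in 1536-well plates and held 24 hours at 37°C, 5% CO2 before 72 hours of exposure to two-drug dose matrices, with DMSO typically at 0.2%. CellTiter-Glo 2.0 luminescence gave viability, which was converted to inhibition. Vehicle wells were set to 0 and blank wells to 1. Combination Emax is the second-highest inhibition in the matrix, and Bliss excess is the observed combination effect minus the expected EA + EB − EA·EB, where EA and EB are the single-agent effects.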

WM-115 (Melanoma) [2] = assay: as above
How it was run: as §1

[3] = test system: CAMA-1 (Breast Carcinoma); assay: as above
How it was run: as §1

[4] = test system: MKN28 (Gastric Carcinoma); assay: as above
How it was run: as §1

[5] = test system: SR (Other Blood Carcinomas); assay: as above
How it was run: as §1

[6] = test system: L-540 (Hodgkin's Lymphoma); assay: as above
How it was run: as §1

[7] = test system: BFTC-905 (Bladder Carcinoma); assay: as above
How it was run: as §1

NCI-H2818 (Mesothelioma) [8] = assay: as above
How it was run: as §1

[9] = test system: BL-41 (Burkitt's Lymphoma); assay: as above
How it was run: as §1

[10] = test system: DND-41 (T-Lymphoblastic Leukemia); assay: as above
How it was run: as §1

[11] = test system: K-562 (Chronic Myelogenous Leukemia); assay: as above
How it was run: as §1

[12] = test system: GR-ST (B-Lymphoblastic Leukemia); assay: as above
How it was run: as §1

WIL2-NS (Non-Cancerous) [13] = assay: as above
How it was run: as §1

[14] = test system: SW1417 (Colorectal Carcinoma); assay: as above
How it was run: as §1

[15] = test system: NCI-H1792 (Lung Adenocarcinoma); assay: as above
How it was run: as §1

ES1 (Ewing's Sarcoma) [16] = assay: as above
How it was run: as §1

[17] = test system: SW837 (Colorectal Carcinoma); assay: as above
How it was run: as §1

ES8 (Ewing's Sarcoma) [18] = assay: combination Emax (second highest fraction inhibited in the dose matrix, 72 h); higher = more inhibition; extreme values may be limits of the assay
How it was run: as §1

WM-115 (Melanoma) [19] = assay: as above
How it was run: as §1

[20] = test system: CAMA-1 (Breast Carcinoma); assay: as above
How it was run: as §1

[21] = test system: MKN28 (Gastric Carcinoma); assay: as above
How it was run: as §1

[22] = test system: SR (Other Blood Carcinomas); assay: as above
How it was run: as §1

[23] = test system: L-540 (Hodgkin's Lymphoma); assay: as above
How it was run: as §1

[24] = test system: BFTC-905 (Bladder Carcinoma); assay: as above
How it was run: as §1

NCI-H2818 (Mesothelioma) [25] = assay: as above
How it was run: as §1

[26] = test system: BL-41 (Burkitt's Lymphoma); assay: as above
How it was run: as §1

[27] = test system: DND-41 (T-Lymphoblastic Leukemia); assay: as above
How it was run: as §1

[28] = test system: K-562 (Chronic Myelogenous Leukemia); assay: as above
How it was run: as §1

[29] = test system: GR-ST (B-Lymphoblastic Leukemia); assay: as above
How it was run: as §1

WIL2-NS (Non-Cancerous) [30] = assay: as above
How it was run: as §1

[31] = test system: SW1417 (Colorectal Carcinoma); assay: as above
How it was run: as §1

[32] = test system: NCI-H1792 (Lung Adenocarcinoma); assay: as above
How it was run: as §1

ES1 (Ewing's Sarcoma) [33] = assay: as above
How it was run: as §1

[34] = test system: SW837 (Colorectal Carcinoma); assay: as above
How it was run: as §1
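Wherever Bliss excess, mean over the matrix is given: after 72 h of two-drug dosing.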

Compound	Bliss excess (ES8 (Ewing's Sarcoma) [1])	Bliss excess (WM-115 (Melanoma) [2])	Bliss excess [3]	Bliss excess [4]	Bliss excess [5]	Bliss excess [6]	Bliss excess [7]	Bliss excess (NCI-H2818 (Mesothelioma) [8])	Bliss excess [9]	Bliss excess [10]	Bliss excess [11]	Bliss excess [12]	Bliss excess (WIL2-NS (Non-Cancerous) [13])	Bliss excess [14]	Bliss excess [15]	Bliss excess (ES1 (Ewing's Sarcoma) [16])	Bliss excess [17]	combination Emax (ES8 (Ewing's Sarcoma) [18])	combination Emax (WM-115 (Melanoma) [19])	combination Emax [20]	combination Emax [21]	combination Emax [22]	combination Emax [23]	combination Emax [24]	combination Emax (NCI-H2818 (Mesothelioma) [25])	combination Emax [26]	combination Emax [27]	combination Emax [28]	combination Emax [29]	combination Emax (WIL2-NS (Non-Cancerous) [30])	combination Emax [31]	combination Emax [32]	combination Emax (ES1 (Ewing's Sarcoma) [33])	combination Emax [34]
CN(CCO)CC[C@H](CSc1ccccc1)Nc1ccc(S(=O)(=O)NC(=O)c2ccc(N3CCC([C@@H](O)c4ccccc4-c4ccc(Cl)cc4)CC3)cc2)cc1S(=O)(=O)C(F)(F)F [AZD4320] + Nc1ccn([C@@H]2O[C@H](CO)[C@@H](O)C2(F)F)c(=O)n1 [Gemcitabine] (first compound max 1 µM, 7x7, partner max 0.3 µM)	0.0312	0.0125	0.063	-0.0338	0.053	-0.0365	0.0207	0.0008	-0.0094	0.0375	0.0054	-0.0009	0.0107	-0.0377	0.0469	-0.0239	-0.0331	1	0.688	0.651	0.283	1	0.951	0.9	0.717	1	1	0.353	0.765	0.987	0.49	0.823	1	0.475
Cc1c2c(nn1C)CSCc1cc(n(C)n1)CSc1cc(c3ccccc3c1)OCCCc1c(C(=O)O)n(C)c3c-2c(Cl)ccc13 [AZD5991] + CC(=O)O[C@H]1C(=O)[C@@]2(C)[C@H]([C@H](OC(=O)c3ccccc3)[C@]3(O)C[C@H](OC(=O)[C@H](O)[C@@H](NC(=O)c4ccccc4)c4ccccc4)C(C)=C1C3(C)C)[C@]1(OC(C)=O)CO[C@@H]1C[C@@H]2O [Paclitaxel] (first compound max 1 µM, 7x7, partner max 3 µM)	0.0091	-0.0392	0.117	-0.011	0.0191	0.0087	0.0108	-0.0054	-0.0098	0.0348	-0.0245	-0.0628	-0.137	0.0164	-0.0037	-0.0419	-0.0327	1	0.631	0.957	0.49	1	1	0.975	0.599	1	0.251	0.877	0.805	0.824	0.529	0.959	1	0.62
Cc1c2c(nn1C)CSCc1cc(n(C)n1)CSc1cc(c3ccccc3c1)OCCCc1c(C(=O)O)n(C)c3c-2c(Cl)ccc13 [AZD5991] + CS(=O)(=O)CCNCc1ccc(-c2ccc3ncnc(Nc4ccc(OCc5cccc(F)c5)c(Cl)c4)c3c2)o1 [Lapatinib] (first compound max 1 µM, 7x7, partner max 10 µM)	0.109	-0.0164	-0.0054	-0.0112	0.0023	0.04	0.023	-0.0282	-0.0004	-0.016	0.0139	0.0082	-0.118	-0.0142	0.0446	-0.0151	-0.0176	0.763	0.32	0.791	0.41	0.927	0.996	0.407	0.277	1	0.792	0.52	0.955	0.27	0.192	0.453	0.9	0.303
N#Cc1cnc(Nc2cc(NC[C@H]3CNCCO3)c(C(F)(F)F)cn2)cn1 [SRA737] + CCc1c2c(nc3ccc(O)cc13)-c1cc3c(c(=O)n1C2)COC(=O)[C@]3(O)CC [SN-38] (first compound max 10 µM, 7x7, partner max 0.3 µM)	0.0054	-0.0968	0.0081	0.04	-0.0069	-0.0403	-0.028	-0.0605	-0.0272	-0.0573	0.138	-0.102	-0.0262	0.019	–	-0.0145	0.0267	1	0.421	0.393	0.552	1	0.938	0.912	0.337	1	0.974	0.977	0.836	0.982	0.803	0.889	1	0.805
